# Test results from US12630527B2, “Broad spectrum anti-cancer compounds” (The Regents of the University of California, priority 2019, dated 2026).
# Entries after “also recorded” stand apart in the source; their conditions may differ.
# Experiments:
# [1] = system: TS576 glioblastoma stem cells; experiment: Tumorosphere (neurosphere) formation assay, TS576; assay type: cell-based, human; details: 2 days
# Procedure: (§1) To understand the effects of our FTO inhibitors on the self-renewal properties of GSCs, tumorospheres cultured from the patient-derived GSC line TS576 were treated with 30 μM of FTO-04, FTO-10, FTO-11, or FTO-12 (FIG. 29A-29B; cell line gifted from the Furnari lab).^45, 46 The GSCs were cultured in sphere-forming assays for 24 hours, then treated with either inhibitors or DMSO control for 2 days. The size of the tumorospheres was calculated using ImageJ.
# (§2) Early passaged GSCs were used to understand the efficacy of ALK-04 on the self-renewal capacity of GSCs by tumorsphere-formation assay as described earlier^10, 11. In brief, GSCs were seeded at 4×10^4 cells in 24 well plate and cultured for 3 days followed by treatment with ALK-04 inhibitors at 20 μM daily for 3 days. After 3 days of treatment the images of the tumorospheres were imaged with phase contrast microscope and size was measured with Image J, to understand the effects of drugs on the self-renewal of GSCs on sphere formation. This process was also repeated for healthy neural stem cells (hNSCs) treated daily with 20 μM ALK-04 for three days to assess the therapeutic ratio.
# [2] = system: human neural stem cells (hNSC); experiment: Neurosphere formation assay, healthy neural stem cells; assay type: cell-based; details: healthy neural stem cells (hNSCs), 20 μM; listed as FTO-04
# Procedure: as §1, §2
# [3] = system: GBM-GSC-23; experiment: Tumorosphere (neurosphere) formation assay, GBM-GSC-23; assay type: cell-based, human; details: 20 μM, 2 days, listed as FTO-04
# [4] = target: T1, FTO (Homo sapiens, UniProt Q9C0B1); experiment: Steady-state (Michaelis-Menten) inhibition kinetics, FTO; assay type: biochemical; details: velocity and double-reciprocal plots; 0-40 μM inhibitor, 0-10 μM substrate; listed as FTO-04
# T1 construct: SUMO (N); His10 (N); made in house; host or cells: E. coli BL21
# T1 sequence (Q9C0B1 whole entry): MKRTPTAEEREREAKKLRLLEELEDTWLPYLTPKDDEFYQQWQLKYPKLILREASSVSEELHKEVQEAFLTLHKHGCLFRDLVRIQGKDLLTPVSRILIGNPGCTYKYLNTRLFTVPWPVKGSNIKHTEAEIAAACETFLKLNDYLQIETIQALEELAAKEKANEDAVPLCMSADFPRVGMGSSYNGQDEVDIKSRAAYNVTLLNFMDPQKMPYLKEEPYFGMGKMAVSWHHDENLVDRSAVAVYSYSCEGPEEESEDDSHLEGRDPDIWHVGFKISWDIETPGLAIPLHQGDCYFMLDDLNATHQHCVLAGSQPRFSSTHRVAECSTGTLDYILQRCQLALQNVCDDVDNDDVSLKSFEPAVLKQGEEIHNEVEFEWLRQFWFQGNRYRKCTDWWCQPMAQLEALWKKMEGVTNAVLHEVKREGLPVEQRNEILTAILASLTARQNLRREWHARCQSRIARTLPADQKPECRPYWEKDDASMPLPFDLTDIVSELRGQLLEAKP
# [5] = system: m6A mRNA levels in TS576 cells; experiment: m6A dot blot assay on poly(A)+ mRNA; assay type: cell-based, human; details: vs DMSO control, does not distinguish m6A and m6Am
# Procedure: Next, we sought to determine if FTO-04 was able to alter m6A levels in purified mRNA from GSCs by m6A dot blot assay. TS576 cells were treated with 2, 10, and 50 ng shControl or shFTO to establish the relative change in m6A mRNA levels due to FTO knockdown. […] TS576 cells were then treated with 2, 10, and 50 ng of either DMSO or FTO-04 (FIG. 59B).
# Polyadenylated mRNA were isolated from TS576 cells treated with either DMSO, FTO-04 (30 μM), and control (shControl) or FTO lentivirus (shFTO) knockdown samples by using Magnetic mRNA Isolation Kit (New England Biolabs, S1550S). Isolated mRNA was quantified, serially diluted and denatured at 95° C. for 3 min, then chilled on ice to prevent reformation of secondary structure of mRNA. Denatured mRNA samples were spotted on an Amersham Hybond-N^+ membrane (GE Healthcare, RPN3050B) and cross-linked to the membrane with UV radiation. After crosslinking the membrane was washed with phosphate buffer saline with 0.1% tween-20 (PBST) and blocked in 5% of non-fat milk in PBST buffer, and then incubated with anti-m^6A antibody (1:1000; abcam) overnight at 4° C. The membrane was then washed as before and incubated in HRP-conjugated secondary antibodies for 1 h at room temperature. The membrane was then developed with Thermo ECL SuperSignal West Femto Maximum Sensitivity Substrate (Thermo Fisher Scientific).
# [6] = target: T1, FTO; experiment: Fluorescence enzymatic inhibition assay (m6A7-Broccoli / DFHBI-1T), FTO; assay type: biochemical; details: fold more potent than MA (IC50=12.5)
# Procedure: In order to determine their efficacy as FTO inhibitors, the compounds were screened by a fluorescence enzymatic inhibition assay developed previously by the Jaffrey lab.^44 Briefly, a nonfluorescent methylated RNA substrate termed “m6A7-Broccoli” is incubated with FTO in the presence of 2-oxoglutarate (300 μM), (NH4)2Fe(SO4)2·6H2O (300 μM), and L-ascorbate (2 mM) for 2 hours at room temperature in reaction buffer (50 mM NaHEPES, pH 6).
# E. coli BL21 competent cells (New England Biolabs) were transformed with pET28-SUMO-His10-FTO plasmid (a generous gift from the Jaffrey lab) by heat shock and spread on a LB Kanamycin agar plate, then incubated overnight at 37° C. 2-3 colonies were picked and transferred to 5 mL of LB media treated with kanamycin (0.5 mg mL^−1 final concentration), then grown overnight shaking at 37° C. The overnight culture was then transferred to 2 L of LB kanamycin media and incubated at 37° C. until OD 0.8. The culture was cooled at 4° C. for 20 mins and induced with 0.5 mM isopropyl β-D-1-thiogalactopyranoside (IPTG), then grown shaken at 16° C. Cell pellets were collected by centrifugation (5,000 g for 10 min at 4° C.) and the supernatant was discarded. The pellets were resuspended in B-PER Bacterial Protein Extraction Reagent (6 mL per gram) with DNase 1 (5 U per mL, RNase-free) and incubated at 4° C. for 1 hour. The suspension was centrifuged at 10,000 g for 20 min and the supernatant was transferred to a Talon Metal Affinity Resin column that had been pre-equilibrized with binding buffer (50 mM NaH2PO4 pH 7.2, 300 mM NaCl, 20 mM imidazole, 1 mM β-mercaptoethanol in RNase-free water). […] The eluant was combined and transferred to a Slyde-A-Lyzer Dialysis Cassette (20,000 MWCO, Thermo Scientific) and dialyzed overnight at 4° C. against dialysis buffer (50 mM Tris-HCl pH 7.4, 100 mM NaCl, 5 mM B-mercaptoethanol, 5% (v/v) glycerol in RNase-free water). […] ALKBH5 was expressed and purified from pET28-SUMO-His10-ALKBH5 plasmid by the same procedure described above.
# Inhibitors were added in concentrations ranging from 0.008-40 μM; all inhibitors were dissolved in DMSO and added to a final concentration of 0.2% DMSO. […] After incubation at room temperature for 2 hours, the plates were left at 4° C. overnight (16 hours) to allow DFHBI-1T to bind to A7-Broccoli RNA. […] Sigmoidal dose-response curves were fitted in GraphPad Prism 6. All assays were performed in triplicate, with additional repetitions added as necessary.
# [7] = system: GBM-6; experiment: Tumorosphere (neurosphere) formation assay, GBM-6; assay type: cell-based, human; details: GBM-6, 20 μM, 2 days; listed as FTO-04
# [8] = system: PECAPJ15; experiment: High Throughput Screen for growth inhibition, PECAPJ15; assay type: cell-based; details: PECAPJ15, Head and Neck; 3 days; unit not given
# Procedure: (§3) The High Throughput Screen method is described below. The endpoint readout of this assay is based upon quantitation of ATP as an indicator of viable cells.
# (§4) Cell lines that have been preserved in liquid nitrogen are thawed and expanded in growth media (see Table 1-3). Once cells have reached expected doubling times, screening begins. Cells are seeded in growth media in black 384-well tissue culture treated plates at 500-1500 cells per well (as noted in Analyzer). Cells are equilibrated in assay plates via centrifugation and placed at 37° C. 5% CO2 for twenty-four hours before treatment. […] Assay plates are incubated with compound for 3 days and are then analysed using CellTiter-Glo 2.0. All data points are collected via automated processes and are subject to quality control and analysed using Horizon's software.
# (§5) Growth Inhibition (GI) is utilized as a measure of cell growth. The GI percentages are calculated by applying the following test and equation: If T<V_0: 100*(1−(T−V_0)/V_0) If T≥V_0: 100*(1−(T−V_0)/(V−V_0)) where T is the signal measure for a test article, V is the untreated/vehicle-treated control measure, and Vo is the untreated/vehicle control measure at time zero (also colloquially referred as T0 plates). This formula is derived from the Growth Inhibition calculation used in the National Cancer Institute's NCI-60 high throughput screen. […]
# [9] = system: A549; experiment: High Throughput Screen for growth inhibition, A549; assay type: cell-based; details: A549, lung adenocarcinoma; 3 days; unit not given
# Procedure: as §3, §4, §5
# [10] = system: SUM159PT; experiment: High Throughput Screen for growth inhibition, SUM159PT; assay type: cell-based; details: Breast, 3 days, unit not given
# Procedure: as §3, §4, §5
# [11] = system: AGS; experiment: High Throughput Screen for growth inhibition, AGS; assay type: cell-based; details: Gastric, 3 days, unit not given
# Procedure: as §3, §4
# (§6) Growth Inhibition (GI) is utilized as a measure of cell growth. The GI percentages are calculated by applying the following test and equation: If T<V_0: 100*(1−(T−V_0)/V_0) If T≥V_0: 100*(1−(T−V_0)/(V−V_0)) where T is the signal measure for a test article, V is the untreated/vehicle-treated control measure, and Vo is the untreated/vehicle control measure at time zero (also colloquially referred as T0 plates). This formula is derived from the Growth Inhibition calculation used in the National Cancer Institute's NCI-60 high throughput screen. For the purposes of this report, all data analysis was performed in Growth Inhibition (except where noted).
# (§7) A GI of 100% represents complete growth inhibition (cytostasis) and in this case cells treated with compound for 3 days would have the same endpoint reading as TO control cells. A GI of 200% represents complete death (cytotoxicity) of all cells in the culture well and in this case the T reading at 3 days will be lower than the TO control (values near or at zero).
# (§8) Horizon also provides Inhibition as a measure of cell viability. Inhibition levels of 0% represent no inhibition of cell growth by treatment. Inhibition of 100% represents no doubling of cell numbers during the treatment window. Both cytostatic and cytotoxic treatments can yield an Inhibition percentage of 100%. Inhibition percentage is calculated as the following: I=1−T/U where T is the treated and U is the untreated/vehicle control.
# [12] = system: NCI-H520; experiment: High Throughput Screen for growth inhibition, NCI-H520; assay type: cell-based; details: NCI-H520, LUSC; 3 days; unit not given
# Procedure: as §3, §4, §5
# [13] = system: BICR16; experiment: High Throughput Screen for growth inhibition, BICR16; assay type: cell-based; details: BICR16, Head and Neck; 3 days; unit not given
# Procedure: as §3, §4, §6, §7
# (§9) Horizon also provides Inhibition as a measure of cell viability. Inhibition levels of 0% represent no inhibition of cell growth by treatment. […] Inhibition percentage is calculated as the following: I=1−T/U where T is the treated and U is the untreated/vehicle control.
# [14] = system: MOLT-4; experiment: High Throughput Screen for growth inhibition, MOLT-4; assay type: cell-based; details: MOLT-4, Leukemia; 3 days; unit not given
# Procedure: as §3, §4, §6, §7, §8
# [15] = system: Kasumi-1; experiment: High Throughput Screen for growth inhibition, Kasumi-1; assay type: cell-based; details: Kasumi-1, Leukemia; 3 days; unit not given
# Procedure: as §3, §4, §5
# [16] = system: SKOV-3; experiment: High Throughput Screen for growth inhibition, SKOV-3; assay type: cell-based; details: SKOV-3, Ovarian; 3 days; unit not given
# Procedure: as §3, §4, §5
# [17] = system: HCT-116; experiment: High Throughput Screen for growth inhibition, HCT-116; assay type: cell-based; details: HCT-116, Colon; 3 days; unit not given
# Procedure: as §3, §4, §5
# [18] = system: LUDLU-1; experiment: High Throughput Screen for growth inhibition, LUDLU-1; assay type: cell-based; details: LUDLU-1, LUSC; 3 days; unit not given
# Procedure: as §3, §4, §6, §7, §9
# [19] = system: Ishikawa; experiment: High Throughput Screen for growth inhibition, Ishikawa; assay type: cell-based; details: Endometrial (uterine), 3 days, unit not given
# Procedure: as §3, §4, §5
# [20] = system: HEC-50B; experiment: High Throughput Screen for growth inhibition, HEC-50B; assay type: cell-based; details: Endometrial (uterine), 3 days, unit not given
# Procedure: as §3, §4, §5
# [21] = system: MV4-11; experiment: High Throughput Screen for growth inhibition (CellTiter-Glo 2.0), MV4-11; assay type: cell-based; details: MV4-11, Leukemia; 3 days with compound; unit not given
# Procedure: as §3, §4, §5
# [22] = system: MC-F7; experiment: High Throughput Screen for growth inhibition, MC-F7 (MCF7); assay type: cell-based; details: MC-F7, Breast (luminal); 3 days; unit not given
# Procedure: as §3, §4, §5
# [23] = system: Panc 04 03; experiment: High Throughput Screen for growth inhibition, Panc 04 03; assay type: cell-based; details: Panc 04 03, Pancreatic; 3 days; unit not given
# Procedure: as §3, §4, §5
# [24] = system: SW480; experiment: High Throughput Screen for growth inhibition, SW480; assay type: cell-based; details: SW480, Colon; 3 days; unit not given
# Procedure: as §3, §4, §5
# [25] = system: Pancreatic; details: read-out: EC50 of chemo SOC; cited from earlier work
structure (smiles),measurement,setting,value
"COc1ncc(-c2ccc3nc(N)sc3c2)cn1 [FTO-4, 6-(2-methoxypyrimidin-5-yl)benzo[d]thiazol-2-amine]",size of tumorospheres,"[1]; TS576, 20 μM, listed as FTO-04",inhibits GSC neurospheres formation; also recorded: significantly decrease the size of tumorospheres
same,size of tumorospheres,"[1]; TS576, 30 μM, vs vehicle control",significant reduction in size of the tumorospheres
same,neurosphere size,[2],without impairing hNSC neurosphere growth; also recorded: no alteration in neurosphere size
same,size of tumorospheres,[3],inhibits GSC neurospheres formation; also recorded: significantly decrease the size of tumorospheres
same,mechanism of inhibition of FTO,[4],competitive inhibitor; also recorded: competitive mechanism of inhibition
same,m6A mRNA levels,[5],increase m6A mRNA levels significantly compared to DMSO control
same,potency against FTO relative to MA,[6],approximately 4
same,size of tumorospheres,[7],inhibits GSC neurospheres formation; also recorded: significantly decrease the size of tumorospheres
CN(Cc1ccc(C(F)(F)F)cc1)c1ccc(CNC2CC2)cn1 [TR-YTH-10],Growth Inhibition (GI) Values,[8],44.646
same,Growth Inhibition (GI) Values,[9],24.437
same,Growth Inhibition (GI) Values,[10],56.597
same,Growth Inhibition (GI) Values,[11],21.842
same,Growth Inhibition (GI) Values,[12],24.266
same,Growth Inhibition (GI) Values,[13],12.966
same,Growth Inhibition (GI) Values,[14],14.304
same,Growth Inhibition (GI) Values,[15],10.784
same,Growth Inhibition (GI) Values,[16],25.341
same,Growth Inhibition (GI) Values,[17],21.453
same,Growth Inhibition (GI) Values,[18],20.311
same,Growth Inhibition (GI) Values,[19],22.531
same,Growth Inhibition (GI) Values,[20],37.217
same,Growth Inhibition (GI) Values,[21],23.158
same,Growth Inhibition (GI) Values,[22],24.642
same,Growth Inhibition (GI) Values,[23],28.024
same,Growth Inhibition (GI) Values,[24],25.275
Nc1ccn([C@@H]2O[C@H](CO)[C@@H](O)C2(F)F)c(=O)n1 [gemcitabine],EC50,[25],< 1000 nM
